Laboratory results reported in publication doi:10.1101/2024.08.19.608619, “Discovery of potent SARS-CoV-2 nsp3 macrodomain inhibitors uncovers lack of translation to cellular antiviral response” (bioRxiv, 2024).
Converted amounts (≈) assume the structure as drawn. “And” between values parts separate entries of the source, which are not always exact repeats. Equal entries are not always repeated. Where two headings read alike, the source gives them in different places.

Assays:
[1] = Permeability Papp (AB) MDR1/MDCKII; details: for papp_a_to_b_mean / papp_b_to_a_mean / perc_recovery_a_to_b_mean / perc_recovery_b_to_a_mean: In vitro MDR1-MDCKII permeability; for papp_b_to_a_mean: B to A; for perc_recovery_a_to_b_mean / perc_recovery_a_to_b_inhibitor_mean: recovery A to B; for perc_recovery_b_to_a_mean / perc_recovery_b_to_a_inhibitor_mean: recovery B to A
PRAK(h) = molecular target: T1, PRAK(h) (Homo sapiens, UniProt Q8IW41); assay: biochemical; design: In vitro kinase panel profiling, per cent remaining kinase activity at 10 uM; details: atp_concentration=15, read-out: % of control remaining
T1 construct: gene MAPKAPK5
T1 sequence (Q8IW41 1-473): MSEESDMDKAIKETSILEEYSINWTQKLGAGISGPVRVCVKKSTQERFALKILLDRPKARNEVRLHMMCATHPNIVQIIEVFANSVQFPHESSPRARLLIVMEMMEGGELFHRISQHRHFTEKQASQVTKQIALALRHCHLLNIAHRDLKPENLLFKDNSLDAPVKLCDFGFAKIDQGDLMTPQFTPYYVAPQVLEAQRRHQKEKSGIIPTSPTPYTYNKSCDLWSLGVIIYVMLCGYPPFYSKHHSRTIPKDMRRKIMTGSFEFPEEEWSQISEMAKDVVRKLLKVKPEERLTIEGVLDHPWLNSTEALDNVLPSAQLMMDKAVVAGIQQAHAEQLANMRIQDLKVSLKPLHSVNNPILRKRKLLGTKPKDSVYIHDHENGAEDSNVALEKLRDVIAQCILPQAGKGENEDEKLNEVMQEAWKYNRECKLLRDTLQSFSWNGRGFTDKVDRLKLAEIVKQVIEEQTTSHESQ
Excerpt: (§1) We derisk potential for off-target activity by profiling the compound in a CEREP panel, a standard secondary pharmacology assessment, as well as a kinase panel to derisk a potential hinge-binding motif in our leads, and a PARP panel to derisk activity against human […]. Reassuringly, the compounds are selective, with the only off-targets being moderate human CHRM2 and KOR receptors activity associated with ASAP-0011198.

LOK(h) = molecular target: T2, LOK(h) (Homo sapiens, UniProt O94804); assay: biochemical; design: In vitro kinase panel profiling, per cent remaining kinase activity at 10 uM; details: atp_concentration=120, read-out: % of control remaining
T2 construct: gene STK10
T2 sequence (O94804 whole entry): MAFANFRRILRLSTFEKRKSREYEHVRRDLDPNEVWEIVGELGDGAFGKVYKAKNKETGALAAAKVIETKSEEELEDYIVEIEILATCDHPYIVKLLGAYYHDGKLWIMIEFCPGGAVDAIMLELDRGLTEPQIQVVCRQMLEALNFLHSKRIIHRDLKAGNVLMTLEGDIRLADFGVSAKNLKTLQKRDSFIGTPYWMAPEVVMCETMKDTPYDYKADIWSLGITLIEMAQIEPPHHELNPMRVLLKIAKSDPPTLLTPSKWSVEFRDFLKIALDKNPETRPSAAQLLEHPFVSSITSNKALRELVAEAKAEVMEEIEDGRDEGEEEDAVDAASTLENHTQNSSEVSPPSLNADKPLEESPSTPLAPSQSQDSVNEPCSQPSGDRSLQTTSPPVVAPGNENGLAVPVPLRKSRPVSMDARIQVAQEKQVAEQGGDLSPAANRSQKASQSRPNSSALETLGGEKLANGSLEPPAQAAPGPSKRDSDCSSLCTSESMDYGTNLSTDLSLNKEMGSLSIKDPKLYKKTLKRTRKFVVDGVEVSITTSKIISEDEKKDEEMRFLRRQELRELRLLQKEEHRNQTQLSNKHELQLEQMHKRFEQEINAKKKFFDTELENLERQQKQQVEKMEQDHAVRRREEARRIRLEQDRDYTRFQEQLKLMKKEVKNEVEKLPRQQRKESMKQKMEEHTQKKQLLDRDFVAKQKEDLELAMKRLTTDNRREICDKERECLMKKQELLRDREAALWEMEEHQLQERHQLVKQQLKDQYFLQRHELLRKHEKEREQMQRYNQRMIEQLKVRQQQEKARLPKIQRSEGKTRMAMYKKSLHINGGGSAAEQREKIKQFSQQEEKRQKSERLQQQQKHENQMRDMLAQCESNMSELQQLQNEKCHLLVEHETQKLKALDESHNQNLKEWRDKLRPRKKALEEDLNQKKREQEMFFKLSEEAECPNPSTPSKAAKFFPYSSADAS
Excerpt: as §1

ROCK-I(h) = molecular target: T3, ROCK-I(h) (Homo sapiens, UniProt Q13464); assay: biochemical; design: In vitro kinase panel profiling, per cent remaining kinase activity at 10 uM; details: atp_concentration=70, read-out: % of control remaining
T3 construct: gene ROCK1
T3 sequence (Q13464 whole entry): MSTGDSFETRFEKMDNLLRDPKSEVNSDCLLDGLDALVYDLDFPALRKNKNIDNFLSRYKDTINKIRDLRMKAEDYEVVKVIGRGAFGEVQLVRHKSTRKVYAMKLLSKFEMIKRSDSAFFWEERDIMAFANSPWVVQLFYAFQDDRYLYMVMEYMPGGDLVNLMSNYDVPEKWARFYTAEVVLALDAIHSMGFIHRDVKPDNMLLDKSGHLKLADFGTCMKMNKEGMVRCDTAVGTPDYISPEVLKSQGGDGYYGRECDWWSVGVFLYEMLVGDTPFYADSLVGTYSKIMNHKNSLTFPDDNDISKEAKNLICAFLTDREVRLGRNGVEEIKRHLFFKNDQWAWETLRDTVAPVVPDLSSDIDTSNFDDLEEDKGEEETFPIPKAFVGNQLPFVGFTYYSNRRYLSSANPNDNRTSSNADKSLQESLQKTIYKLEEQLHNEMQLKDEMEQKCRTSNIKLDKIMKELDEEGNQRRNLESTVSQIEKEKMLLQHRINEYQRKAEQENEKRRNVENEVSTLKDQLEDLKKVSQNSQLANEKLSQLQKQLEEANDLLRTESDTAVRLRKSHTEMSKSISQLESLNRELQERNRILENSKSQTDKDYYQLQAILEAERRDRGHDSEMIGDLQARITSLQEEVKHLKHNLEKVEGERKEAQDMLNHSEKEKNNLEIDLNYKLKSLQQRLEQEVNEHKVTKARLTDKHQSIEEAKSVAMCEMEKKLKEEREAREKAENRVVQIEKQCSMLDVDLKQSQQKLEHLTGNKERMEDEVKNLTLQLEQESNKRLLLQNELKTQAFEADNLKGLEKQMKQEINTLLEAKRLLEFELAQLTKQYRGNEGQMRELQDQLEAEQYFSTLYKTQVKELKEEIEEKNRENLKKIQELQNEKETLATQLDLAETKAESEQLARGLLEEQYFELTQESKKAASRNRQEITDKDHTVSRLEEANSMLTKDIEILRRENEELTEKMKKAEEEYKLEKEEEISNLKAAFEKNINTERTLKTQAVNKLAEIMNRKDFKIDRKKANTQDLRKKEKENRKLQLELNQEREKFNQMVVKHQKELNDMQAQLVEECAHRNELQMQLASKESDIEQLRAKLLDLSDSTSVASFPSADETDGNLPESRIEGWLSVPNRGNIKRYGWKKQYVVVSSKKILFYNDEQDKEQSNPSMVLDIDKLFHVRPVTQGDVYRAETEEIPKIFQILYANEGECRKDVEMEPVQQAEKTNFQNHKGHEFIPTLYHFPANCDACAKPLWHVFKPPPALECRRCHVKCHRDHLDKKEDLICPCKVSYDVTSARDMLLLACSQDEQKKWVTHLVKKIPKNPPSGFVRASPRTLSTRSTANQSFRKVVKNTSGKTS
Excerpt: as §1

PKA(h) = molecular target: T4, PKA(h) (Homo sapiens, UniProt P17612); assay: biochemical; design: In vitro kinase panel profiling, per cent remaining kinase activity at 10 uM; details: atp_concentration=10, read-out: % of control remaining
T4 construct: gene PRKACA
Excerpt: as §1

TAK1(h) = molecular target: T5, TAK1(h) (Homo sapiens, UniProt O43318); assay: biochemical; design: In vitro kinase panel profiling, per cent remaining kinase activity at 10 uM; details: atp_concentration=45, read-out: % of control remaining
T5 construct: gene MAP3K7
T5 sequence (O43318 1-606): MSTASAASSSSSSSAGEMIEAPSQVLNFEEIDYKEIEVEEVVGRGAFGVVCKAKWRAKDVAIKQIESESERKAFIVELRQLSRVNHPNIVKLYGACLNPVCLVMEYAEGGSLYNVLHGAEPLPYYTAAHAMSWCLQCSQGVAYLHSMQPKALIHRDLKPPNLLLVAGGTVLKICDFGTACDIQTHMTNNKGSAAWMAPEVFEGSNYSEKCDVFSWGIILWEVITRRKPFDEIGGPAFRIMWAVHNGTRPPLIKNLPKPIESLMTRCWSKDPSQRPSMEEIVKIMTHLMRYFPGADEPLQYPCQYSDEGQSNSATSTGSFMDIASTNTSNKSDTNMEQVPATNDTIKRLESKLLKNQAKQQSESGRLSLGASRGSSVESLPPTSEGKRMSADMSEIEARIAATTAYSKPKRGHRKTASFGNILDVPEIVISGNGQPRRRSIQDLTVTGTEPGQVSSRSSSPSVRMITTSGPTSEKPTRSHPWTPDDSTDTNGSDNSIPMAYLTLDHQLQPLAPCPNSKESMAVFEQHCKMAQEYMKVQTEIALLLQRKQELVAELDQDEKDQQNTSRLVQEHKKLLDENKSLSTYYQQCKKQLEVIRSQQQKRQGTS
Excerpt: as §1

Lyn(h) = Lyn(h) (Homo sapiens, UniProt P07948); assay: biochemical; design: In vitro kinase panel profiling, per cent remaining kinase activity at 10 uM; details: atp_concentration=70, read-out: % of control remaining
Lyn(h), sequence (P07948 whole entry): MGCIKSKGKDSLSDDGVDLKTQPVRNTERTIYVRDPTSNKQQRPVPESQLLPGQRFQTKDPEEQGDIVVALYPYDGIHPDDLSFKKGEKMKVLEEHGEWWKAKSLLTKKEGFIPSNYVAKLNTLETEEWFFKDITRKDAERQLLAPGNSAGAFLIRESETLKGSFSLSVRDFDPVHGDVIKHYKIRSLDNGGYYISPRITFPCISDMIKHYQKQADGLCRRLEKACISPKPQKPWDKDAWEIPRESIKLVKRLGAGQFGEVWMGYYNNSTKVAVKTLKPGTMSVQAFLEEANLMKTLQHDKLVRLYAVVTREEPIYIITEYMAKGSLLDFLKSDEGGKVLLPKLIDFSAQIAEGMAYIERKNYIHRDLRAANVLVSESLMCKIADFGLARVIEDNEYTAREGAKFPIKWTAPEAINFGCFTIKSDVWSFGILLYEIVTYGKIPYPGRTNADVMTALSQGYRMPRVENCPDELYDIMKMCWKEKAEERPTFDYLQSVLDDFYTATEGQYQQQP
Excerpt: as §1

CHK1(h) = molecular target: T6, CHK1(h) (Homo sapiens, UniProt O14757); assay: biochemical; design: In vitro kinase panel profiling, per cent remaining kinase activity at 10 uM; details: atp_concentration=90, read-out: % of control remaining
T6 construct: gene CHEK1
T6 sequence (O14757 1-476): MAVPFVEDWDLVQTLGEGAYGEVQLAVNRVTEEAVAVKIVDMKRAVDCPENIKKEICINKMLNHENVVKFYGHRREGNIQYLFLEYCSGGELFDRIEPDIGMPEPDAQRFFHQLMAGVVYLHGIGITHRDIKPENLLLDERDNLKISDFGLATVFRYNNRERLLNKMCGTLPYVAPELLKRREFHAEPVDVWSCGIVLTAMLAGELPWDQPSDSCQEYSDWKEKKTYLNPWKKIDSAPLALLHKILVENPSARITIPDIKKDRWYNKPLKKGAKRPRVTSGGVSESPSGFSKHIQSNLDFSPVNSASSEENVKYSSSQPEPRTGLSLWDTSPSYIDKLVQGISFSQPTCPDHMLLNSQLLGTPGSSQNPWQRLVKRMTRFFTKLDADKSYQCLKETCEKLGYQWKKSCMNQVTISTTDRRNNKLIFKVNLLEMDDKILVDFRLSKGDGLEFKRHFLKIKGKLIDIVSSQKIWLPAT
Excerpt: as §1

[2] = In vitro kinetic solubility; details: for solubility_mean: In vitro kinetic solubility, ph 7.4
[3] = MDR1-MDCKII, with inhibitor Cyclosporin A
[4] = MDR1-MDCKII, with inhibitor Verapamil

Structure (SMILES)	papp_a_to_b_mean ([1]; A to B, mean) [×10⁻⁶ cm/s]	papp_a_to_b_mean ([1]; A to B, no inhibitor)	papp_b_to_a_mean ([1]; no inhibitor)	perc_recovery_a_to_b_mean ([1]; mean) [%]	perc_recovery_a_to_b_mean ([1]; no inhibitor)	perc_recovery_b_to_a_mean ([1]; no inhibitor)	perc_recovery_a_to_b_inhibitor_mean [1, 3]	perc_recovery_a_to_b_inhibitor_mean [1, 4] [%]	perc_recovery_b_to_a_inhibitor_mean [1, 3]	perc_recovery_b_to_a_inhibitor_mean [1, 4] [%]	solubility_mean [2] [µM]	logd (LogD; pH 7.4, In vitro LogD)	further results
CC(C)[C@@H](Nc1ncnc2[nH]c(-c3cnn(C)c3C#N)cc12)c1ccc2c(n1)OCCO2 [ASAP-0010716]	14.6	1.05 ×10⁻⁶ cm/s and 1.02 ×10⁻⁶ cm/s and 0.676 ×10⁻⁶ cm/s	6.5 ×10⁻⁶ cm/s and 6.1 ×10⁻⁶ cm/s and 8.26 ×10⁻⁶ cm/s	85.7	67.5% and 74.0% and 87.7%	70.0% and 84.4% and 95.1%	115.0% and 75.2%	107.0	106.0% and 78.2%	88.6	50 (≈ 21.5 µg/mL)	3.9	papp_a_to_b_inhibitor_mean ([1]; MDR1-MDCKII, A to B, with inhibitor Cyclosporin A): 4.51 ×10⁻⁶ cm/s; remaining activity at 10 µM (PRAK(h); batch_name=ASAP-0010716-002): 89%; remaining activity at 10 µM (LOK(h); batch_name=ASAP-0010716-002): 106%; remaining activity at 10 µM (ROCK-I(h); batch_name=ASAP-0010716-002): 107%; remaining activity at 10 µM (PKA(h); batch_name=ASAP-0010716-002): 93%; remaining activity at 10 µM (TAK1(h); batch_name=ASAP-0010716-002): 100%; remaining activity at 10 µM (Lyn(h); batch_name=ASAP-0010716-002): 96%; remaining activity at 10 µM (CHK1(h); batch_name=ASAP-0010716-002): 120%
CNCc1cc(-c2cc3c(N[C@@H](c4ccc5c(c4)S(=O)(=O)CCC5)C(C)C)ncnc3[nH]2)co1 [ASAP-0011176]	2.61	0.0775 ×10⁻⁶ cm/s and 0.0947 ×10⁻⁶ cm/s	0.15 ×10⁻⁶ cm/s and 0.137 ×10⁻⁶ cm/s	78.9	64.8% and 63.4%	60.4% and 68.7%	78.6%	67.3	83.0%	62.0	345 (≈ 165 µg/mL)	2.2	remaining activity at 10 µM (PRAK(h); batch_name=ASAP-0011176-002): 122%; remaining activity at 10 µM (LOK(h); batch_name=ASAP-0011176-002): 92%; remaining activity at 10 µM (ROCK-I(h); batch_name=ASAP-0011176-002): 102%; remaining activity at 10 µM (PKA(h); batch_name=ASAP-0011176-002): 96%; remaining activity at 10 µM (TAK1(h); batch_name=ASAP-0011176-002): 90%; remaining activity at 10 µM (Lyn(h); batch_name=ASAP-0011176-002): 47%; remaining activity at 10 µM (CHK1(h); batch_name=ASAP-0011176-002): 111%
CC(C)C(Nc1ncnc2[nH]c(C(=O)NC3CCN(C)C3)cc12)c1ccc2c(c1)S(=O)(=O)CCC2 (stereo not drawn) [ASAP-0011198]		0.0631 ×10⁻⁶ cm/s	0.0474 ×10⁻⁶ cm/s	94.6	86.2% and 71.8%	93.1% and 82.5%	100.0% and 74.6%		100.0% and 87.0%				Papp A→B ([1]; dog, MDCK-MDR1, Papp (AB) MDR1/MDCKII, A to B): 2.9 ×10⁻⁶ cm/s; remaining activity at 10 µM (PRAK(h); batch_name=ASAP-0011198-002): 111%; remaining activity at 10 µM (LOK(h); batch_name=ASAP-0011198-002): 99%; remaining activity at 10 µM (ROCK-I(h); batch_name=ASAP-0011198-002): 98%; remaining activity at 10 µM (PKA(h); batch_name=ASAP-0011198-002): 89%; remaining activity at 10 µM (TAK1(h); batch_name=ASAP-0011198-002): 100%; remaining activity at 10 µM (Lyn(h); batch_name=ASAP-0011198-002): 107%; remaining activity at 10 µM (CHK1(h); batch_name=ASAP-0011198-002): 118%; solubility kinetic [2]: 392 µM (≈ 195 µg/mL); solubility ([2]; pH 7.4): 392 µM (≈ 195 µg/mL); logd (LogD): 1.6; logd (LogD; pH 7.4): 1.6
Cn1ncc(-c2cc3c(N[C@@H](c4ccc5c(n4)OCCO5)C(C)(C)C)ncnc3[nH]2)c1C#N [ASAP-0011221]	14.0	2.76 ×10⁻⁶ cm/s	5.51 ×10⁻⁶ cm/s	84.8	94.8%	101.0%	61.6%		62.4%		24 (≈ 10.7 µg/mL)	3.3	remaining activity at 10 µM (PRAK(h); batch_name=ASAP-0011221-002): 86%; remaining activity at 10 µM (LOK(h); batch_name=ASAP-0011221-002): 122%; remaining activity at 10 µM (ROCK-I(h); batch_name=ASAP-0011221-002): 129%; remaining activity at 10 µM (PKA(h); batch_name=ASAP-0011221-002): 95%; remaining activity at 10 µM (TAK1(h); batch_name=ASAP-0011221-002): 95%; remaining activity at 10 µM (Lyn(h); batch_name=ASAP-0011221-002): 101%; remaining activity at 10 µM (CHK1(h); batch_name=ASAP-0011221-002): 125%
